Data as given in patent publication US20250129121A1, “POLYPEPTIDE, PRODUCT INCLUDING POLYPEPTIDE FOR INHIBITING FUSOBACTERIUM NUCLEATUM, OR DRUG FOR PREVENTING COLORECTAL CANCER” (priority 2022, published 2025).
≈ marks a conversion by molar mass, not a printed value. Where a SMILES comes first, the peptide text is derived from it.

Experiments:
[1] = test system: F. nucleatum 25586; assay type: cell-based, Fusobacterium nucleatum; conditions: 25586, 20 h
Procedure: (§1) A. Each polypeptide was prepared into a specified stock solution for later use. Minimum inhibitory concentrations (MICs) of the polypeptides P1 to P12 were determined by a broth microdilution method. With 0.01% acetic acid (including 0.2% of bovine serum albumin (BSA)) as a diluent, a series of gradient antimicrobial peptide solutions were prepared by a two-fold dilution method.
(§2) B. 100 μL of each polypeptide stock solution was taken and added to a 96-well cell culture plate, and then each strain solution to be tested (about 10^5/mL) was added in an equal volume to each well. A positive control (including a strain solution, but not including a polypeptide) and a negative control (including neither a strain solution nor a polypeptide). Strains to be tested include Escherichia coli Nissile 1917, Vibrio cholerae H1, Pseudomonas aeruginosa PAO1, F. nucleatum 25586, F. nucleatum 10953, Bifidobacterium uniformis 6597, Lactobacillus acidophilus 6075, Bifidobacterium longum 6194Lactobacillus rhamnosus 6141, and Streptococcus agalactiae H94.
(§3) C. The cell culture plate was incubated at a constant temperature of 37° C. for 20 h, and MIC was recorded when the turbidity was not observed by naked eyes at a bottom of a well. The strains all were purchased from the market.

[2] = test system: F. nucleatum 10953; assay type: cell-based, Fusobacterium nucleatum; conditions: 10953, 20 h
Procedure: as §1, §2, §3

[3] = test system: F. nucleatum-induced colorectal cancer; assay: F. nucleatum-enhanced colorectal cancer animal model; assay type: in vivo, C57BL APC^min mouse; conditions: 20 mg/kg per day intragastrically for 7 d, compared with Fn+H2O group
Source text: A. To verify the antibacterial effects of the F. nucleatum-specific antimicrobial peptides in vivo for F. nucleatum and especially the preventive effects of the F. nucleatum-specific antimicrobial peptides for F. nucleatum-induced diseases, an F. nucleatum-enhanced colorectal cancer animal model (i.e. the C57BL APC^min mouse orally administered with F. nucleatum) was adopted in this example. As shown in FIG. 20: C57BL APC^min mice were selected and intragastrically administered with F. nucleatum 25586 three times a week as an F. nucleatum intragastric administration group. Mice in a control group were intragastrically administered with an equal amount of PBS every week (PBS intragastric administration group). On the second day of intragastric administration in the first week, mice each were treated with 2.5% dextran sulfate sodium (DSS) consecutively for 3 d to improve the colonization of F. nucleatum. B. Mice were intragastrically administered with the antimicrobial peptide P8 or P11 for treatment in the sixth week, and mice in the control group were intragastrically administered with pure water. Each mouse was intragastrically administered at 20 mg/kg per day consecutively for 7 d. Then, mice were euthanized, and the tumor number and size were recorded.

[4] = test system: other strains; assay: Antimicrobial activity against strains other than F. nucleatum (bactericidal specificity); assay type: cell-based; conditions: test strains other than F. nucleatum
Procedure: as §1, §2, §3

[5] = test system: Lactobacillus acidophilus 6075; assay type: cell-based; conditions: 20 h
Procedure: as §1, §2, §3

[6] = test system: Escherichia coli Nissile 1917; assay type: cell-based; conditions: Nissile 1917, 20 h
Procedure: as §1, §2, §3

[7] = test system: Bifidobacterium uniformis 6597; assay type: cell-based; conditions: 20 h
Procedure: as §1, §2, §3

[8] = test system: Pseudomonas aeruginosa PAO1; assay type: cell-based; conditions: PAO1, 20 h
Procedure: as §1, §2, §3

[9] = test system: Lactobacillus rhamnosus 6141; assay type: cell-based; conditions: 20 h
Procedure: as §1, §2, §3

[10] = test system: Streptococcus agalactiae H94; assay type: cell-based; conditions: H94, 20 h
Procedure: as §1, §2, §3

[11] = test system: Bifidobacterium longum 6194; assay type: cell-based; conditions: 20 h
Procedure: as §1, §2, §3

Compound | MIC Fusobacterium nucleatum 25586 [1] | MIC Fusobacterium nucleatum 10953 [2] | tumor diameter [3] | tumor number [3] | antimicrobial activity against other strains [4] | MIC Lactobacillus acidophilus 6075 [5] | MIC Escherichia coli nissile1917 [6] | MIC Bifidobacteriu muniformis 6597 [7] | MIC Pseudomonas aeruginosa PAO1 [8] | MIC Lactobacterium rhamnosus 6141 [9] | MIC Streptococcus agalactiae H94 [10] | MIC Bifidobacterium longum 6194 [11]
N=C(N)NCCC[C@H](NC(=O)CNC(=O)[C@@H]1CCCN1C(=O)[C@H](CCCNC(=N)N)NC(=O)[C@H](Cc1c[nH]c2ccccc12)NC(=O)[C@H](Cc1c[nH]cn1)NC(=O)[C@H](Cc1c[nH]c2ccccc12)NC(=O)[C@H](CCCNC(=N)N)NC(=O)[C@H](Cc1c[nH]c2ccccc12)NC(=O)[C@H](Cc1c[nH]cn1)NC(=O)[C@@H](N)Cc1c[nH]c2ccccc12)C(=O)N[C@@H](Cc1c[nH]c2ccccc12)C(=O)N[C@@H](Cc1c[nH]cn1)C(=O)N[C@@H](Cc1c[nH]c2ccccc12)C(=O)N[C@@H](CCCNC(=N)N)C(=O)N[C@@H](Cc1c[nH]c2ccccc12)C(=O)N[C@@H](Cc1c[nH]cn1)C(=O)N[C@@H](Cc1c[nH]c2ccccc12)C(=O)O [P8, WHWRWHWRPGRWHWRWHW] (H-WHWRWHWRPGRWHWRWHW-OH; N-terminus assumed) | 8 µM (≈ 22.7 µg/mL) | 4 µM (≈ 11.3 µg/mL) | relatively small | relatively small | weak antimicrobial activity | 32 µM (≈ 90.7 µg/mL) | >64 µM | >64 µM | >64 µM | >64 µM | >64 µM | >64 µM
N=C(N)NCCC[C@H](NC(=O)CNC(=O)[C@@H]1CCCN1C(=O)[C@H](CCCNC(=N)N)NC(=O)[C@H](Cc1c[nH]c2ccccc12)NC(=O)[C@H](Cc1c[nH]cn1)NC(=O)[C@H](Cc1c[nH]c2ccccc12)NC(=O)[C@H](Cc1c[nH]c2ccccc12)NC(=O)[C@H](Cc1c[nH]cn1)NC(=O)[C@H](Cc1c[nH]c2ccccc12)NC(=O)[C@H](CCCNC(=N)N)NC(=O)CNC(=O)[C@@H]1CCCN1C(=O)[C@H](CCCNC(=N)N)NC(=O)[C@H](Cc1c[nH]c2ccccc12)NC(=O)[C@H](Cc1c[nH]cn1)NC(=O)[C@@H](N)Cc1c[nH]c2ccccc12)C(=O)N[C@@H](Cc1c[nH]c2ccccc12)C(=O)N[C@@H](Cc1c[nH]cn1)C(=O)N[C@@H](Cc1c[nH]c2ccccc12)C(=O)O [P9] (H-WHWRPGRWHWWHWRPGRWHW-OH; N-terminus assumed) | 64 µM (≈ 191 µg/mL) | 64 µM (≈ 191 µg/mL) |  |  |  | 64 µM (≈ 191 µg/mL) | >64 µM | >64 µM | >64 µM | >64 µM | >64 µM | 64 µM (≈ 191 µg/mL)
N=C(N)NCCC[C@H](NC(=O)CNC(=O)[C@@H]1CCCN1C(=O)[C@H](CCCNC(=N)N)NC(=O)[C@H](Cc1c[nH]c2ccccc12)NC(=O)[C@H](CCCCN)NC(=O)[C@@H](N)Cc1c[nH]c2ccccc12)C(=O)N[C@@H](Cc1c[nH]c2ccccc12)C(=O)N[C@@H](CCCCN)C(=O)N[C@@H](Cc1c[nH]c2ccccc12)C(=O)O [P10, WKWRPGRWKW] (H-WKWRPGRWKW-OH; N-terminus assumed) | 8 µM (≈ 11.9 µg/mL) | 16 µM (≈ 23.8 µg/mL) |  |  |  | 64 µM (≈ 95.1 µg/mL) | 64 µM (≈ 95.1 µg/mL) | 64 µM (≈ 95.1 µg/mL) | >64 µM | >64 µM | >64 µM | >64 µM
N=C(N)NCCC[C@H](NC(=O)CNC(=O)[C@@H]1CCCN1C(=O)[C@H](CCCNC(=N)N)NC(=O)[C@H](Cc1c[nH]c2ccccc12)NC(=O)[C@H](CCCCN)NC(=O)[C@H](Cc1c[nH]c2ccccc12)NC(=O)[C@H](CCCNC(=N)N)NC(=O)[C@H](Cc1c[nH]c2ccccc12)NC(=O)[C@H](CCCCN)NC(=O)[C@@H](N)Cc1c[nH]c2ccccc12)C(=O)N[C@@H](Cc1c[nH]c2ccccc12)C(=O)N[C@@H](CCCCN)C(=O)N[C@@H](Cc1c[nH]c2ccccc12)C(=O)N[C@@H](CCCNC(=N)N)C(=O)N[C@@H](Cc1c[nH]c2ccccc12)C(=O)N[C@@H](CCCCN)C(=O)N[C@@H](Cc1c[nH]c2ccccc12)C(=O)O [P11, WKWRWKWRPGRWKWRWKW] (H-WKWRWKWRPGRWKWRWKW-OH; N-terminus assumed) | 4 µM (≈ 11.2 µg/mL) | 16 µM (≈ 44.8 µg/mL) | relatively small | relatively small | weak antimicrobial activity | 32 µM (≈ 89.6 µg/mL) | 64 µM (≈ 179 µg/mL) | 8 µM (≈ 22.4 µg/mL) | 32 µM (≈ 89.6 µg/mL) | >64 µM | 64 µM (≈ 179 µg/mL) | 16 µM (≈ 44.8 µg/mL)
N=C(N)NCCC[C@H](NC(=O)CNC(=O)[C@@H]1CCCN1C(=O)[C@H](CCCNC(=N)N)NC(=O)[C@H](Cc1c[nH]c2ccccc12)NC(=O)[C@H](CCCCN)NC(=O)[C@H](Cc1c[nH]c2ccccc12)NC(=O)[C@H](Cc1c[nH]c2ccccc12)NC(=O)[C@H](CCCCN)NC(=O)[C@H](Cc1c[nH]c2ccccc12)NC(=O)[C@H](CCCNC(=N)N)NC(=O)CNC(=O)[C@@H]1CCCN1C(=O)[C@H](CCCNC(=N)N)NC(=O)[C@H](Cc1c[nH]c2ccccc12)NC(=O)[C@H](CCCCN)NC(=O)[C@@H](N)Cc1c[nH]c2ccccc12)C(=O)N[C@@H](Cc1c[nH]c2ccccc12)C(=O)N[C@@H](CCCCN)C(=O)N[C@@H](Cc1c[nH]c2ccccc12)C(=O)O [P12] (H-WKWRPGRWKWWKWRPGRWKW-OH; N-terminus assumed) | 2 µM (≈ 5.91 µg/mL) | 2 µM (≈ 5.91 µg/mL) |  |  |  | 32 µM (≈ 94.5 µg/mL) | 32 µM (≈ 94.5 µg/mL) | 64 µM (≈ 189 µg/mL) | 32 µM (≈ 94.5 µg/mL) | >64 µM | 2 µM (≈ 5.91 µg/mL) | 16 µM (≈ 47.3 µg/mL)
